In US10059701B2 (Merck Patent GmbH, priority 2015, dated 2018):

Legend:
[1] = molecular target: T1, IRAK1 (Homo sapiens, UniProt P51617); experiment: IRAK1 enzymatic assay (ADP-Glo luminescence); format: biochemical; settings: purified human recombinant His-TEV-IRAK1 (194-712)
T1 construct: His-TEV-IRAK1 (194-712); His (N); TEV cleavage site (N)
Experimental: IRAK1 is a human purified recombinant enzyme (His-TEV-IRAK1 (194-712))
In this assay, IRAK1 hydrolyses ATP and autophosphorylates. Measurement of IRAK-1 inhibition is performed in 384-well format based on luminescence assay (ADP-Glo™ Kinase Assay from Promega). Purified human recombinant IRAK1 (0.3 μg/ml) and serial diluted compounds in DMSO (range of concentration from 10 μM to 0.5 nM) or controls (1% DMSO) are incubated for 15 minutes at RT in assay buffer containing 50 mM Hepes pH 7.0, Fatty acid-free BSA 0.1%, Dithiothreitol (DTT) 2 mM, MgCl2 10 mM, EGTA 0.5 mM, Triton X-100 0.01%. The kinase reaction is then initiated by the addition of ATP […] After 2 hours of incubation at RT, the reaction is stopped and the unconsumed ATP depleted by the addition of ADP-Glo™ Reagent according to supplier instructions. After 40 minutes of incubation at RT, the Kinase Detection Reagent is then added to the assay plate according to supplier instructions. After 20 minutes of incubation at RT, the luminescence signal is measured with a luminometer (PerkinElmer Envision or equivalent reader).

[2] = molecular target: T2, IRAK4 (Homo sapiens, UniProt Q9NWZ3); experiment: IRAK4 enzymatic assay (ADP-Glo luminescence); format: biochemical; settings: purified human recombinant His-TEV-IRAK4 (1-460), ATP 2 μM
T2 construct: His-TEV-IRAK4 (1-460); His (N); TEV cleavage site (N)
T2 sequence (Q9NWZ3 1-460): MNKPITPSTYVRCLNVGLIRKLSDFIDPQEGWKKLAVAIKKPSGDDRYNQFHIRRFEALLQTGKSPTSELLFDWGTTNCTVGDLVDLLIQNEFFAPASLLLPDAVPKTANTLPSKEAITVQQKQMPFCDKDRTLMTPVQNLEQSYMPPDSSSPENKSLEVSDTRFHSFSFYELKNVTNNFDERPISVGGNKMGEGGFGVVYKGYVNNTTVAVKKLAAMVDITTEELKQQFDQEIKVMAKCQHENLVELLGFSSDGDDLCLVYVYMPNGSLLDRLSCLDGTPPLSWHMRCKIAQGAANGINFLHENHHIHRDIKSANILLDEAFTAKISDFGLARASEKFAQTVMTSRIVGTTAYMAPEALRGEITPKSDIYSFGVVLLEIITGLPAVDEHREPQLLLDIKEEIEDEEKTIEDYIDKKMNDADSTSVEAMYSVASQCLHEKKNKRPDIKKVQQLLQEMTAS
Experimental: IRAK4 is a human purified recombinant enzyme (His-TEV-IRAK4 (1-460)).
In this assay, IRAK4 hydrolyses ATP, autophosphorylates and phosphorylates a Serine/Threonine generic peptidic substrate (STK: 61ST1BLC from CisBio International). Measurement of IRAK-4 inhibition is performed in 384-well format based on a luminescence assay (ADP-Glo™ Kinase Assay from Promega). Purified human recombinant IRAK4 (0.3 μg/ml) and serial diluted compounds in DMSO (range of concentration from 10 μM to 0.5 nM) or controls (1% DMSO) are incubated for 15 minutes at RT in assay buffer containing 50 mM Hepes pH 7.0, Fatty acid-free BSA 0.1%, Dithiothreitol (DTT) 2 mM, MgCl2 10 mM, EGTA 0.5 mM, Triton X-100 0.01%, MnCl2 5 mM. The kinase reaction is then initiated by the addition of ATP (2 μM) and the peptidic substrate STK1-biotin peptide (300 nM). After 2 hours of incubation at RT, the reaction is stopped and the unconsumed ATP depleted by the addition of ADP-Glo™ Reagent according to supplier instructions. After 40 minutes of incubation at RT, the Kinase Detection Reagent is then added to the assay plate according to supplier instructions. After 20 minutes of incubation at RT, the luminescence signal is measured with a plate-reading luminometer (PerkinElmer Envision or equivalent reader).

T1 sequence (P51617 194-712): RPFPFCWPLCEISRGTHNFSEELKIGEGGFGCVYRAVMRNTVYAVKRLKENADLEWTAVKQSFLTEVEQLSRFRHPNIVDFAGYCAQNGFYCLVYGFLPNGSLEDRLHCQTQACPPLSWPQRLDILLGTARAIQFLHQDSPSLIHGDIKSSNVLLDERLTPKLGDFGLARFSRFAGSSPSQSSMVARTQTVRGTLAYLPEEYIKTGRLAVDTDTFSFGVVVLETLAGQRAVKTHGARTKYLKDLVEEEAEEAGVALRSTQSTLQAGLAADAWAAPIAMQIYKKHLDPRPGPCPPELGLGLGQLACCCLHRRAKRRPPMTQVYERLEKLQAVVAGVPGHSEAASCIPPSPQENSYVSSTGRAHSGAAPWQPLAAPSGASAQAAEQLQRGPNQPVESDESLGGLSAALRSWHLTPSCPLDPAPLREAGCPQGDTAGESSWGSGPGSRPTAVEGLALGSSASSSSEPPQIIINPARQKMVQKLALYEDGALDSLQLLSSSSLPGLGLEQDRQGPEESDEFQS

SMILES	IC50 [1] [nM]	IC50 [2] [nM]
O=C(/N=c1\[nH]c2cc(N3CCCOC3=O)ccc2n1CC1CCCOC1)c1cccc(C(F)(F)F)c1 (stereo not shown) [Compound 180, (E)-N-(5-(2-oxo-1,3-oxazinan-3-yl)-1-((tetrahydro-2H-pyran-3-yl)methyl)-1H-benzo[d]imidazol-2(3H)-ylidene)-3-(trifluoromethyl)benzamide]	100 to 1000	≤ 100
COc1cc2c(cc1N1CCOCC1=O)[nH]/c(=N\C(=O)c1cccc(C(F)F)c1)n2CCCO [Compound 75, (E)-3-(difluoromethyl)-N-(1-(3-hydroxypropyl)-6-methoxy-5-(3-oxomorpholino)-1H-benzo[d]imidazol-2(3H)-ylidene)benzamide]	≤ 100	≤ 100
O=C(/N=c1\[nH]c2cc(N3CCOCC3=O)ccc2n1CCCO)c1ccccc1 [Compound 30, (E)-N-(1-(3-hydroxypropyl)-5-(3-oxomorpholino)-1H-benzo[d]imidazol-2(3H)-ylidene)benzamide]	100 to 1000	100 to 1000
O=C(/N=c1\[nH]c2cc(N3CCOCC3=O)ccc2n1CC1(CO)CC1)c1cc(F)cc(C(F)(F)F)c1 [Compound 25, (E)-3-fluoro-N-(1-((1-(hydroxymethyl)cyclopropyl)methyl)-5-(3-oxomorpholino)-1H-benzo[d]imidazol-2(3H)-ylidene)-5-(trifluoromethyl)benzamide]	100 to 1000	≤ 100
Cc1cc2c(cc1N1CCOCC1=O)[nH]/c(=N\C(=O)c1cccc(C#N)c1)n2CCCO [Compound 68, (E)-3-cyano-N-(1-(3-hydroxypropyl)-6-methyl-5-(3-oxomorpholino)-1H-benzo[d]imidazol-2(3H)-ylidene)benzamide]	100 to 1000	≤ 100
CN1CCC(n2/c(=N/C(=O)c3cccc(C(F)F)c3)[nH]c3cc(N4CCOCC4=O)ccc32)CC1 [Compound 165, (E)-3-(difluoromethyl)-N-(1-(1-methylpiperidin-4-yl)-5-(3-oxomorpholino)-1H-benzo[d]imidazol-2(3H)-ylidene)benzamide]	100 to 1000	100 to 1000
O=C(/N=c1\[nH]c2cc(N3CCOCC3=O)c(Br)cc2n1CCCO)c1cccc(C(F)(F)F)c1 [Compound 50, (E)-N-(6-bromo-1-(3-hydroxypropyl)-5-(3-oxomorpholino)-1H-benzo[d]imidazol-2(3H)-ylidene)-3-(trifluoromethyl)benzamide]	100 to 1000	≤ 100

Second part, the compound after the results:

IC50 [1] [nM]	IC50 [2] [nM]	SMILES
≤ 100	≤ 100	C[C@H](CCO)n1/c(=N/C(=O)c2cccc(C(F)F)c2)[nH]c2cc(N3CCOCC3=O)ccc21 [Compound 242, (R,E)-3-(difluoromethyl)-N-(1-(4-hydroxybutan-2-yl)-5-(3-oxomorpholino)-1H-benzo[d]imidazol-2(3H)-ylidene)benzamide]
≤ 100	≤ 100	O=C(/N=c1\[nH]c2cc(N3CCN(C4CCC4)CC3=O)ccc2n1CCCO)c1cccc(C(F)F)c1 [Compound 184, (E)-N-(5-(4-cyclobutyl-2-oxopiperazin-1-yl)-1-(3-hydroxypropyl)-1H-benzo[d]imidazol-2(3H)-ylidene)-3-(difluoromethyl)benzamide]
≤ 100	≤ 100	O=C(/N=c1\[nH]c2cc(N3C(=O)CN(C4CC4)CC34CC4)ccc2n1CCCO)c1cccc(C(F)F)c1 [Example 198, (E)-N-(5-(7-cyclopropyl-5-oxo-4,7-diazaspiro[2.5]octan-4-yl)-1-(3-hydroxypropyl)-1H-benzo[d]imidazol-2(3H)-ylidene)-3-(difluoromethyl)benzamide]
100 to 1000	≤ 100	O=C(/N=c1\[nH]c2cc(N3CCOCCC3=O)ccc2n1CCCO)c1cccc(C(F)(F)F)c1 [Compound 192, (E)-N-(1-(3-hydroxypropyl)-5-(5-oxo-1,4-oxazepan-4-yl)-1H-benzo[d]imidazol-2(3H)-ylidene)-3-(trifluoromethyl)benzamide]
